# Publication PMC3747596 (PLoS ONE, 2013)
# Read-outs that look alike come from different tables or passages of the source.
# Experiments:
# 5-HT1d = 5-HT1d (Homo sapiens, UniProt P28221); assay: Radioligand displacement, 5-HT1d
# H4 = H4 (Homo sapiens, UniProt Q9H3N8); assay: Radioligand displacement, H4; assay type: binding
# human NOP = target: T1, human NOP (Homo sapiens, UniProt P41146); assay: NOP binding against [3H]N/OFQ, HEK293T membranes
# T1 construct: expressed in transfected cells; host or cells: HEK293T
# T1 sequence (P41146 whole entry): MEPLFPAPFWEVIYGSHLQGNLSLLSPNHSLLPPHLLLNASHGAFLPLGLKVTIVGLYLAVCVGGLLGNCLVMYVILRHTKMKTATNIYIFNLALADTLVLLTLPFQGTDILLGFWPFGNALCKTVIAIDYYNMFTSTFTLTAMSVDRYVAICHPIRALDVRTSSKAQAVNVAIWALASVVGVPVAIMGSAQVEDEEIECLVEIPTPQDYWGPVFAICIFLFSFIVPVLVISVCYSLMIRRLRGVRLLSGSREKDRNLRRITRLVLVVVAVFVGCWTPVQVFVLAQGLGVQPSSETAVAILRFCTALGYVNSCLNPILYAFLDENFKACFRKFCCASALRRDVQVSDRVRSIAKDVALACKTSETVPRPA
# H1 = H1 (Homo sapiens, UniProt P35367); assay: Radioligand displacement, H1; assay type: binding
# Sequence of H1 (P35367 whole entry): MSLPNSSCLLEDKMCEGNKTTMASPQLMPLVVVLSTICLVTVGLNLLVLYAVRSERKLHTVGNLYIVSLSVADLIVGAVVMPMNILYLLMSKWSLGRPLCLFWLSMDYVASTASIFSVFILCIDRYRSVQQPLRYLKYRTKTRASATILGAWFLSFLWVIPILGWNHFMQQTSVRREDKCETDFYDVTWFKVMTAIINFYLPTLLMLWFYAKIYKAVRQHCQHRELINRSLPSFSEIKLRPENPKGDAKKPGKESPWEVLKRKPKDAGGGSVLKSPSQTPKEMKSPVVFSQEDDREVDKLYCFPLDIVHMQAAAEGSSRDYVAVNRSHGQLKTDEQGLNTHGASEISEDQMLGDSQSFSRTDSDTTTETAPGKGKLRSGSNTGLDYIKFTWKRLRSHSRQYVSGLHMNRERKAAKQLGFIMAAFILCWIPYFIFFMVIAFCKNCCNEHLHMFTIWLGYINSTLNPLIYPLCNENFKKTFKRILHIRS
# H3 = H3 (Cavia porcellus, UniProt Q9JI35); assay: Radioligand displacement, H3; assay type: binding, Guinea Pig
# Sequence of H3 (Q9JI35 whole entry): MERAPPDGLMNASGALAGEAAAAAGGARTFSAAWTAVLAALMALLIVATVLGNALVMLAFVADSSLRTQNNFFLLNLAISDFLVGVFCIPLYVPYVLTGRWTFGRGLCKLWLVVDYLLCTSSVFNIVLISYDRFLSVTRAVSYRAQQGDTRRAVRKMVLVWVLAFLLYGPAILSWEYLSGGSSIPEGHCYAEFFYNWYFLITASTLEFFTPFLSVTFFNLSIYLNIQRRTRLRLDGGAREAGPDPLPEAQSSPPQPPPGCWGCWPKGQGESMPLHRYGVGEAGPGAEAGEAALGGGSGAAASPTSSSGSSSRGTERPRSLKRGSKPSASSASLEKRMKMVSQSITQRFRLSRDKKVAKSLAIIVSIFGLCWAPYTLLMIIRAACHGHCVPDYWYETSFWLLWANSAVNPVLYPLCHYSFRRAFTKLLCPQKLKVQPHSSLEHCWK
# M2 = M2 (Homo sapiens, UniProt P08172); assay: biochemical; assay type: binding
# Sequence of M2 (P08172 whole entry): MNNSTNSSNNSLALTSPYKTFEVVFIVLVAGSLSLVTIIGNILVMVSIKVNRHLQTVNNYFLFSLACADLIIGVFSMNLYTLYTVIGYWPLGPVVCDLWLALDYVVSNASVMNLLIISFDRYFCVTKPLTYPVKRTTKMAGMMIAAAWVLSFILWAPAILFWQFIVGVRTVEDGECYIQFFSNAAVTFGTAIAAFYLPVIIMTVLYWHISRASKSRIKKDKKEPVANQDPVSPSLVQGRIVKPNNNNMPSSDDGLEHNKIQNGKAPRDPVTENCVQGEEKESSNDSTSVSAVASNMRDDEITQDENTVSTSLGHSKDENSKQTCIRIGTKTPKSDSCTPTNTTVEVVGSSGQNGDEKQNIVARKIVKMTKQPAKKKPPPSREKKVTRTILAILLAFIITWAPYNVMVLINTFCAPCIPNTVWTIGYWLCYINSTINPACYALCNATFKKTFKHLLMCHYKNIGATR
# σ1 = σ1 (Rattus norvegicus, UniProt Q9R0C9); assay: Radioligand displacement, σ1; assay type: binding
# Sequence of σ1 (Q9R0C9 whole entry): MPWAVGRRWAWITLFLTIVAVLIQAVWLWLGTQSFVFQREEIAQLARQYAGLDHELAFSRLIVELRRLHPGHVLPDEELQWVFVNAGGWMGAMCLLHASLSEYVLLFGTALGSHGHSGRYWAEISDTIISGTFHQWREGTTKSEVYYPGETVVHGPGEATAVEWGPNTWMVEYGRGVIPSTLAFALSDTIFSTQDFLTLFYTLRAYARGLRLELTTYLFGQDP
# D4 = target: T2, D4 (Homo sapiens, UniProt P21917); assay: Radioligand displacement, D4; assay type: binding
# T2 sequence (P21917 1-419): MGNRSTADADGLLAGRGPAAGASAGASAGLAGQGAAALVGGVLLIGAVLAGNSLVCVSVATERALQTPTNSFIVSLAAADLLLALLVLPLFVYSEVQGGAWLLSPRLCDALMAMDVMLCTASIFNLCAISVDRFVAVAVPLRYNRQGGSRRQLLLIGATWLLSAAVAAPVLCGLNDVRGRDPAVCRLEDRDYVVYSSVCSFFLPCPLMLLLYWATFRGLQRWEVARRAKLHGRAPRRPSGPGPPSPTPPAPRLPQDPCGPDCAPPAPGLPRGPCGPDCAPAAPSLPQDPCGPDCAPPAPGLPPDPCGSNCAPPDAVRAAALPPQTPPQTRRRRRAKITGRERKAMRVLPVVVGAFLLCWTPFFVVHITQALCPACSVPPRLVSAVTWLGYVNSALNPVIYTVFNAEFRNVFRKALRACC
# [1] = target: NMDA receptors, phencyclidine (cation channel) site; assay: Radioligand displacement, NMDA; assay type: binding, Rat; settings: for Ki: [3H] radioligand MK801, Rat, Brain
# H2 = H2 (Homo sapiens, UniProt P25021); assay: Radioligand displacement, H2
# Sequence of H2 (P25021 whole entry): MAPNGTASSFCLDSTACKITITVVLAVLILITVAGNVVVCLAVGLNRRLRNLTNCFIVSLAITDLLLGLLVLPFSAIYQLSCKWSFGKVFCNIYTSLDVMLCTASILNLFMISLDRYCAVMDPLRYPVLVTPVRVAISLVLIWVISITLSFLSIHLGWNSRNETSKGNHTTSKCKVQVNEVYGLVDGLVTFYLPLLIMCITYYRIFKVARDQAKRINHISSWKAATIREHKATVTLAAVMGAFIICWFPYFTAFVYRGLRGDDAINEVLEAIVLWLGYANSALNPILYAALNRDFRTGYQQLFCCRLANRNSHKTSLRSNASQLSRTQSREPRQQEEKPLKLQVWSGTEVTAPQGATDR
# [2] = cited from earlier work
# σ2 = target: T3, σ2 (Rattus norvegicus, UniProt Q5U3Y7); assay: Radioligand displacement, σ2; assay type: binding
# T3 sequence (Q5U3Y7 1-176): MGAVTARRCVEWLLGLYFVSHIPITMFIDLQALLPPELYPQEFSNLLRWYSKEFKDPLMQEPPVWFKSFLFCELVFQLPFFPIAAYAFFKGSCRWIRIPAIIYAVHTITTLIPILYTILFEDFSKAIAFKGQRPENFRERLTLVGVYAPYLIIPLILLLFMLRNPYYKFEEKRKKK
# DAT = DAT (Homo sapiens, UniProt Q01959); assay: Radioligand displacement, DAT
# Sequence of DAT (Q01959 whole entry): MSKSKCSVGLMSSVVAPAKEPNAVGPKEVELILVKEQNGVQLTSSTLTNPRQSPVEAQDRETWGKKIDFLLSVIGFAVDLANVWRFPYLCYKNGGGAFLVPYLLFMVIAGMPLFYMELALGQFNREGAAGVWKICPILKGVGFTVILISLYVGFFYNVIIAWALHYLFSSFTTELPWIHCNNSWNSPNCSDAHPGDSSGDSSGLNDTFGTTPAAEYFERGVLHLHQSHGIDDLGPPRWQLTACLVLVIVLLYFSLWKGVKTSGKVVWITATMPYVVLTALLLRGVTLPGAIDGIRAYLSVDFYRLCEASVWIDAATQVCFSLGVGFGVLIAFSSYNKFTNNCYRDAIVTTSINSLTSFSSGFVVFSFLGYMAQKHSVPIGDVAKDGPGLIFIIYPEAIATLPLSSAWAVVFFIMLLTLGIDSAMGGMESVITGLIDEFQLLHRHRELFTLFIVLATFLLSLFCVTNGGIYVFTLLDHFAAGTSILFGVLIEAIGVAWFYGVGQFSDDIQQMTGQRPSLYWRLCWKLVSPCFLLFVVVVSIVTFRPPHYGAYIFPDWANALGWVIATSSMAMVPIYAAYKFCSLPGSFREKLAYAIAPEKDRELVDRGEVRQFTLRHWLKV
# 5-HT2c = target: T4, 5-HT2c (Homo sapiens, UniProt P28335); assay: Radioligand displacement, 5-HT2c; assay type: binding
# T4 sequence (P28335 33-458): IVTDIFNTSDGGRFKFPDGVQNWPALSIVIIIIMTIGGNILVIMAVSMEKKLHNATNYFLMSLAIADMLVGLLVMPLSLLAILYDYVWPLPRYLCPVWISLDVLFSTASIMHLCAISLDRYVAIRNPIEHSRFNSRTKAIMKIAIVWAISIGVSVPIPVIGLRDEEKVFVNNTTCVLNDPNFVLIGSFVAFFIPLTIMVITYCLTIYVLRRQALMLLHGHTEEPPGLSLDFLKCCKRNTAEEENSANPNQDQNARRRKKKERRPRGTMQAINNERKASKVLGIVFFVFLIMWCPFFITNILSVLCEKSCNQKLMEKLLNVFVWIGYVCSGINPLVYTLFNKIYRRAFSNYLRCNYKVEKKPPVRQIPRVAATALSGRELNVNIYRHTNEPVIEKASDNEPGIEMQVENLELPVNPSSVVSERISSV
# 5-HT6 = 5-HT6 (Homo sapiens, UniProt P50406); assay: Radioligand displacement, 5-HT6; assay type: binding
# Sequence of 5-HT6 (P50406 whole entry): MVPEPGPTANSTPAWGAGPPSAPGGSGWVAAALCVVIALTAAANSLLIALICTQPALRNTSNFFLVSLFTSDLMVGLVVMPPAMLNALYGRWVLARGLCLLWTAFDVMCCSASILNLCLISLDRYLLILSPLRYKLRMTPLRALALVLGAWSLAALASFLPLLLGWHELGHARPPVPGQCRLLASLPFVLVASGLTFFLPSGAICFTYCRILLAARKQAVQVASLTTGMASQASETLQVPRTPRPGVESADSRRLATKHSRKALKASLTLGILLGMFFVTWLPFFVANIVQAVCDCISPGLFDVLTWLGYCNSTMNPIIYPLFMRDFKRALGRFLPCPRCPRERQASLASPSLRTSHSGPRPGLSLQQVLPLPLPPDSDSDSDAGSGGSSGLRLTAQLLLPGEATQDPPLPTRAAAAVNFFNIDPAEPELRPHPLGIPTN
# [3] = target: T5, α2C-adrenoceptor (α2C-AR) (Homo sapiens, UniProt P18825); assay: Radioligand displacement, α2C
# T5 sequence (P18825 1-462): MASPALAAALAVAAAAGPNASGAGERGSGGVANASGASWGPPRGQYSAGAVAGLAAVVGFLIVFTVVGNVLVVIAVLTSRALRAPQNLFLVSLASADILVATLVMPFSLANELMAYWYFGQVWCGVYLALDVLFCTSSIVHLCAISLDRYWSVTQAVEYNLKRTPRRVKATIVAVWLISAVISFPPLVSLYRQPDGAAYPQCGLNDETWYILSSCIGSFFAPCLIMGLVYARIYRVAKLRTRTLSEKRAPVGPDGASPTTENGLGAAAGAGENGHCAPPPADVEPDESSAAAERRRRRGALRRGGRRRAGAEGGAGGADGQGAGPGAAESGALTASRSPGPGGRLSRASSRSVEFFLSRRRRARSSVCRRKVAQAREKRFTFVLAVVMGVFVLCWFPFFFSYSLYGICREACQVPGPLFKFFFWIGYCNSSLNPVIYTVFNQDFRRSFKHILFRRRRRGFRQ
# M4 = M4 (Homo sapiens, UniProt P08173); assay: Radioligand displacement, M4; assay type: binding
# Sequence of M4 (P08173 whole entry): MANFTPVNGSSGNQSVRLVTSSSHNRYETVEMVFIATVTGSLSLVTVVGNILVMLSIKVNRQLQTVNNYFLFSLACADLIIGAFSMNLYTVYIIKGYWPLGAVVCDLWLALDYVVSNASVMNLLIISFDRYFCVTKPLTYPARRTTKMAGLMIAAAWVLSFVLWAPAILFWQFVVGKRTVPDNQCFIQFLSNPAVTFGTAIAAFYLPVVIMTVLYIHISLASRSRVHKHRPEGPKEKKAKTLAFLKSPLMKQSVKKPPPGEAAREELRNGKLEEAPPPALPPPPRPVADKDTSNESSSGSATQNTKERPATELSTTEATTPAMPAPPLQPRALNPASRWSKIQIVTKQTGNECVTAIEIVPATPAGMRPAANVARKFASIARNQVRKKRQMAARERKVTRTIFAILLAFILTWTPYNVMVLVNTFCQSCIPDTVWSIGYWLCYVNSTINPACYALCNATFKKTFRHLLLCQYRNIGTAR
# mice = settings: mice, cited from earlier work
# [4] = Caco-2 cell monolayer permeation; settings: human, Caco-2, pH 7.4
# 5-HT2a = 5-HT2a (Homo sapiens, UniProt P28223); assay: Radioligand displacement, 5-HT2a; assay type: binding
# Sequence of 5-HT2a (P28223 whole entry): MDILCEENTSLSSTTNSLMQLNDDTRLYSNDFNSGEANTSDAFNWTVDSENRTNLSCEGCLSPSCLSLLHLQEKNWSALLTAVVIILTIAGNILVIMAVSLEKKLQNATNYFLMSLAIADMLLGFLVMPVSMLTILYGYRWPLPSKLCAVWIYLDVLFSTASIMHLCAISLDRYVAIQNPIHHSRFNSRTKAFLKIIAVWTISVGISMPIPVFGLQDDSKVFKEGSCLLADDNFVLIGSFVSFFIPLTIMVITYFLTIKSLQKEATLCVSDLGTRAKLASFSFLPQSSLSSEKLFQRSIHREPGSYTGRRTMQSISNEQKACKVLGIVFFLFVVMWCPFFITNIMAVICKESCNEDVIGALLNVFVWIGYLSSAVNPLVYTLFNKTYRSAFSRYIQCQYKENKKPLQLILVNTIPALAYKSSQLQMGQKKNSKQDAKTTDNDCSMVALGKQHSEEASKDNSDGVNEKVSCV
# [5] = Ki, [3H] radioligand GR125743, Human, Cloned
# [6] = Ki, [3H] radioligand QNB, Human, Cloned
# [7] = K i, α2C, radioligand displacement (Table 1)
# [8] = Ki, [3H] radioligand Rauwolscine, Human, Cloned
# [9] = [3H] radioligand QNB, Human, Cloned, read-out: Ki
# Sequence of 5-HT1d (P28221 whole entry): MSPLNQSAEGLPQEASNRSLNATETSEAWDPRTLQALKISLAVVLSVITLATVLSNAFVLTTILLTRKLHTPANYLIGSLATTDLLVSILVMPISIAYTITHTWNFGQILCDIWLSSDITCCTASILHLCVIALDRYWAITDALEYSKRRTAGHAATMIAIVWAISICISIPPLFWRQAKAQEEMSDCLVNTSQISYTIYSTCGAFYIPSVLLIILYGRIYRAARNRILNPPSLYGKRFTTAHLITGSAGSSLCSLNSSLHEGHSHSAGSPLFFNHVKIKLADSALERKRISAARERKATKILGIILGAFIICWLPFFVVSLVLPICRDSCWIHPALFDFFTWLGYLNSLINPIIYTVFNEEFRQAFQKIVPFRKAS
smiles,measurement,setting,value
"N=C(N)Nc1ccc2[nH]c3c(c2c1)C[C@@]1(O)[C@H]2Cc4ccc(O)c5c4[C@@]1(CCN2CC1CC1)[C@H]3O5 [GNTI, 5′-guanidinonaltrindole]",Ki,5-HT1d; [5],≥ 10 µM
same,Ki,H4,≥ 10 µM
same,Ki,human NOP,2.5 µM
same,Ki,H1,≥ 10 µM
same,Ki,H3,≥ 10 µM
same,Ki,M2; [6],5.37 µM
same,Ki,"M2; Ki, binding curve File S1, M2 Receptor, [3H]QNB (0.1 nM), Muscarinic Binding Buffer",5.36 µM
same,Ki,"M2; M2, radioligand displacement (Table 1), read-out: K i",5.4 µM
same,Ki,σ1,≥ 10 µM
same,Ki,D4,≥ 10 µM
same,Ki,[1],≥ 10 µM
same,Ki,H2,≥ 10 µM
same,estimate of the unbound brain concentration,[2]; after 39 mg/kg,5 nM
same,peak unbound concentration in plasma,[2]; dose 10 mg/kg,2 µM
same,peak unbound concentration in plasma,[2]; dose 39 mg/kg,8 µM
same,decline of plasma concentration,[2]; within 4 hours,over 80%
same,decline of plasma concentration,[2]; within 24 hours,over 98%
same,Ki,σ2,≥ 10 µM
same,Ki,DAT,≥ 10 µM
same,Ki,5-HT2c,≥ 10 µM
same,Ki,5-HT6,≥ 10 µM
same,Ki,[3]; [7],2.2 µM
same,Ki,[3]; [8],2.23 µM
same,Ki,"[3]; Ki, binding curve File S1, Alpha2C Receptor, [125I]Clonidine (0.12 nM), Alpha2 Binding Buffer",2.23 µM
same,Ki,M4,≥ 10 µM
same,"time to ataxia, convulsions and death",mice; 30 mg/kg i.p.,≤ 18 min
same,toxic signs,mice; 30 mg/kg i.p.,"ataxia, convulsions and death"
same,Papp A→B at 120 min,[4],88 ×10⁻⁶ cm/s
same,Papp B→A at 120 min,[4],270 ×10⁻⁶ cm/s
same,efflux ratio at 120 min,[4],3.1
same,Ki,5-HT2a,≥ 10 µM
CC(C)[C@@H](CN1CC[C@@](C)(c2cccc(O)c2)[C@@H](C)C1)NC(=O)[C@H]1Cc2ccc(O)cc2CN1 [JDTic],Ki,5-HT1d,≥ 10 µM
same,Ki,"H4; [3H] radioligand Histamine, Human, Cloned, read-out: Ki",≥ 10 µM
same,Ki,"human NOP; NOP, displacing [3H]N/OFQ (Table 1), read-out: K i",0.012 µM
same,Ki,"H1; [3H] radioligand Pyrilamine, Human, Cloned, read-out: Ki",≥ 10 µM
same,Ki,"H3; [3H] radioligand α-methylhistamine, Guinea Pig, Cloned, read-out: Ki",≥ 10 µM
same,Ki,M2; [9],≥ 10 µM
same,Ki,"M2; binding curve File S1, M2 Receptor, [3H]QNB (0.1 nM), Muscarinic Binding Buffer, read-out: Ki",> 10 µM
same,Ki,"σ1; [3H] radioligand Pentazocine(+), Rat, Brain, read-out: Ki",1.88 µM
same,Ki,"σ1; binding curve File S1, Sigma-1 Receptor, [3H]Pentazocine (3.0 nM), Sigma Binding Buffer, read-out: Ki",1.88 µM
same,Ki,"σ1; σ1, radioligand displacement (Table 1), read-out: K i",1.9 µM
same,Ki,"D4; [3H] radioligand N-Methylspiperone, Human, Cloned, read-out: Ki",≥ 10 µM
same,Ki,[1],≥ 10 µM
same,Ki,"H2; K i, H2, radioligand displacement (Table 1)",1.8 µM
same,Ki,"H2; Ki, [3H] radioligand Tiotidine, Human, Cloned",1.79 µM
same,Ki,"H2; Ki, binding curve File S1, H2 Receptor, [3H]Tiotidine (3 nM), Histamine Binding Buffer",1.79 µM
same,peak unbound concentration in plasma,[2]; dose 10 mg/kg,0.1 µM
same,decline of plasma concentration,[2]; within 4 hours,over 80%
same,decline of plasma concentration,[2]; within 24 hours,over 98%
same,Ki,"σ2; [3H] radioligand DTG, Rat, PC12, read-out: Ki",≥ 10 µM
same,Ki,"DAT; K i, DAT, radioligand displacement (Table 1)",4.4 µM
same,Ki,"DAT; Ki, [3H] radioligand WIN35428, Human, Cloned",4.37 µM
same,Ki,"DAT; Ki, binding curve File S1, Dopamine Transporter, [3H]WIN35428 (3 nM), Transporter Binding Buffer",4.37 µM
same,Ki,"5-HT2c; [3H] radioligand Mesulergine, Human, Cloned, read-out: Ki",≥ 10 µM
same,Ki,"5-HT6; [3H] radioligand LSD, Human, Cloned, read-out: Ki",≥ 10 µM
same,Ki,[3],≥ 10 µM
same,Ki,M4; [9],≥ 10 µM
same,toxic signs,mice; 100 mg/kg,no convulsions or deaths
same,Papp A→B at 120 min,[4],60 ×10⁻⁶ cm/s
same,Papp B→A at 120 min,[4],310 ×10⁻⁶ cm/s
same,Ki,"5-HT2a; [3H] radioligand Ketanserin, Human, Cloned, read-out: Ki",≥ 10 µM
"Oc1ccc2c3c1O[C@H]1c4[nH]c5c(c4C[C@@]4(O)[C@@H](C2)N(CC2CC2)CC[C@]314)C[C@@]1(O)[C@H]2Cc3ccc(O)c4c3[C@@]1(CCN2CC1CC1)[C@H]5O4 [nor-BNI, Nor-binaltorphimine]",Ki,"5-HT1d; K i, 5-HT1d, radioligand displacement (Table 1)",1.1 µM
same,Ki,5-HT1d; [5],1.13 µM
same,Ki,H4,≥ 10 µM
same,Ki,human NOP,4.4 µM
same,Ki,H1,≥ 10 µM
same,Ki,H3,≥ 10 µM
same,Ki,M2; [6],≥ 10 µM
same,Ki,σ1,≥ 10 µM
same,Ki,D4,≥ 10 µM
same,Ki,[1],≥ 10 µM
same,displacement of [3H]MK-801 from the phencyclidine (cation channel) site,[1]; at 10 µM,did not displace
same,Ki,H2,≥ 10 µM
same,peak unbound concentration in plasma,[2]; dose 10 mg/kg,3 µM
same,decline of plasma concentration,[2]; within 4 hours,over 80%
same,decline of plasma concentration,[2]; within 24 hours,over 98%
same,Ki,σ2,≥ 10 µM
same,Ki,DAT,≥ 10 µM
same,Ki,5-HT2c,≥ 10 µM
same,Ki,5-HT6,≥ 10 µM
same,Ki,[3]; [7],0.63 µM
same,Ki,[3]; [8],0.626 µM
same,Ki,M4,≥ 10 µM
same,toxic signs,mice; 100 mg/kg,no convulsions or deaths
same,Papp A→B at 120 min,[4],51 ×10⁻⁶ cm/s
same,Papp B→A at 120 min,[4],310 ×10⁻⁶ cm/s
same,Ki,5-HT2a,≥ 10 µM
